Data published in US20210341378A1, “HIGH-CONTENT IMAGING OF MICROFLUIDIC DEVICES” (priority 2019, published 2021).

Assays:
[1] = system: microfluidic devices seeded with human liver cells; assay: APAP metabolite quantification by LC-MS, human Liver-Chip; type: in vitro ADME; details: daily 3 mM for 20 days, quadruple-cell human chip
Excerpt: After APAP exposure to microfluidic devices seeded with human liver cells, effluent metabolite levels were quantified using LC-MS analysis. […] APAP-Glucuronide (APAP-Glu), the primary metabolite of APAP, was not quantified using a standard curve. Rather, the LC-MS peak area of APAP-Glu was reported corresponding to each sample.

[2] = system: microfluidic devices seeded with human liver cells; assay: Albumin secretion (ELISA), human Liver-Chip; type: cell-based
Excerpt: Prior to cell seeding, microfluidic devices, in this case S-I Chips (Emulate, Inc. Boston, Mass., USA), were functionalized using Emulate's proprietary protocols and reagents (ER™), including those described herein. After surface functionalization, both channels of the microfluidic device were coated with species-specific extracellular matrices (ECM). For the human bound microfluidic device, a mixture of collagen type I (Corning, Corning, N.Y., USA) and fibronectin, e.g. bovine, (Gibco) was used; for the rat bound microfluidic devices a mixture of collagen type IV, e.g. human placenta, (Sigma-Aldrich, St. Louis, Mo., USA) and fibronectin (Gibco) was used; for the dog bound microfluidic devices a mixture of collagen I (Corning), collagen type IV (Sigma-Aldrich), and fibronectin (Gibco) was used. […] For the dual-cell culture model (hepatocytes and endothelial cells), the LSECs were seeded at a concentration of 2-4 million cells/mL in the lower vascular channel. […] After cell seeding, the upper channel of the microfluidic device was maintained in William's E Medium (WEM) containing Glutamax (Gibco), ITS+ (Corning), dexamethasone (Sigma-Aldrich), ascorbic acid (Sigma-Aldrich), fetal bovine serum (FBS) (Sigma-Aldrich), and Penicillin/Streptomycin (Sigma-Aldrich). The vascular channel of the microfluidic device was maintained with species-specific endothelial media (Emulate, Inc.). Two days after seeding, the microfluidic devices were connected to the Human Emulation System™ (Emulate, Inc.), as described in part herein, and both of the microfluidic device channels were perfused at 30 μL/hr to provide a continuous supply of fresh media for the duration of the experiments. Albumin secretion from the upper channel was quantified using ELISA kits for human, rat, and dog models effluent samples (human and rat: Abcam; dog: Immunology Consultants Laboratory, Inc., Portland, Oreg., USA) and the assays were performed according to the protocol provided by each vendor.

[3] = system: stellate cells; assay: Stellate cell activation (alpha-SMA), human Liver-Chip; type: cell-based; details: daily 1, 10 and 30 μM for 7 days, quadruple-cell chip
Experimental: (§1) Microfluidic devices seeded with liver cells and static sandwich plate cultures were fixed with 4% paraformaldehyde for 15 minutes at room temperature, washed with PBS, and permeabilized (saponin 1% with 10% serum in PBS). Blocking and incubation with the primary antibodies (overnight in PBS containing 1% BSA or PBS containing 10% serum and 1% BSA) was followed by a two-hour incubation with secondary antibodies (Cell Signaling, Danvers, Mass., USA) in the same blocking buffer. Immunostaining was performed with specific primary antibodies (anti-MRP2, anti-stabilin-1, anti-BSEP, anti-α-SMA, anti-CD68; Abcam, Cambridge, Mass., USA) and images were acquired with either an Olympus fluorescence microscope (IX83) or Zeiss confocal microscope (AxiovertZ1 LSM880).
(§2) The number of CD68- or α-SMA-positive cells in the vascular channel in each group was counted in each field of view ([…]) and quantified.
The fluorescent channel (588) was first background subtracted and processed using the median filter of Image J. After processing, the signal was thresholded using adaptive thresholding function of Image J (Otsu method) to extract fluorescent regions and to measure the relative intensity of the fluorescent signal. N=4 to 6 FOVs per microfluidic device from each microfluidic device were analyzed. […]

[4] = system: microfluidic devices seeded with human liver cells; assay: Lipid accumulation (Nile red / AdipoRed), human Liver-Chip; type: cell-based; details: daily 1, 10 and 30 μM for 7 days, quadruple-cell chip
Excerpt: Microfluidic devices seeded with liver cells were stained in the upper channel with 5(6)-Carboxy-2′,7′-dichlorofluorescein diacetate (CDFDA) (ThermoFisher) to visualize bile canaliculi and MRP2 activity, cholyl-lysyl-fluorescein (CLF) (Corning) to visualize bile canaliculi and BSEP activity, Nile red (ThermoFisher) or AdipoRed (Lonza) to visualize lipid droplet accumulation, Tetramethylrhodamine, methyl ester (TMRM) (ThermoFisher) to visualize active mitochondria, and CellROX® (ThermoFisher) to visualize cellular oxidative stress. Each staining solution was prepared in blank medium or compound dosing medium and added to the upper channel, incubated for 15 minutes at 37° C., and washed three times with medium. The stained microfluidic devices were imaged using a specific filter, and were de-blurred with Olympus cellSens software. Using ImageJ-Fiji, the fluorescent channel images were histogram adjusted to remove background, followed by fluorescence quantification using the Integrated Density calculation function.
The stained microfluidic devices were imaged using the TRITC filter, and were de-blurred with Olympus cellSens software. Using ImageJ-Fiji, the fluorescent channel images were histogram adjusted to remove background, followed by fluorescence quantification using the Integrated Density calculation function. N=5 FOVs per microfluidic device were analyzed for conditions: vehicle (0.1% DMSO), FIAU dosing groups, and MTX dosing groups.

[5] = system: microfluidic devices seeded with human liver cells; assay: Cytokine release (IL-6, MCP-1, IP-10) from vascular channel, human Liver-Chip; type: cell-based
Experimental: Cytokines: Release of IL-6, MCP-1, and IP-10 from the vascular channel was quantified using U-PLEX biomarker human assays (Meso Scale Diagnostics, Rockville, Md., USA) and the assays were performed according to the protocol provided by the vendor.

[6] = some patient populations; cited from earlier work
[7] = system: microfluidic devices seeded with liver cells (hepatocytes and LSECs); assay: High-content confocal imaging of Liver-Chips treated with staurosporine; type: cell-based, human; details: 10 μM, six hours of exposure
Experimental: Microfluidic devices were obtained from Emulate Inc. (USA) and are illustrated in FIG. 1A. The channels of the microfluidic devices were coated with a proprietary mixture of extracellular matrix and were incubated overnight at 37° C. Primary human cryopreserved hepatocytes sourced from ThermoFisher, as one example, were seeded in the top channel at a density of 3.5×10^6 cells/mL, and were left to form an attached monolayer at 37° C. in a humidified incubator with a 95%/5% ratio of air to CO2.
Twenty-four hours after seeding, the hepatocyte monolayer was overlaid with Matrigel Matrix sourced from Corning, USA. Primary human cryopreserved liver sinusoidal endothelial cells, also known as LSECs, were seeded on the bottom channel of the microfluidic device at a density of 2 to 4×10^6 cells/mL in endothelial medium, also known as CSC medium or Base LSEC Culture Medium; CSC basal Medium plus Culture-Boost (2%), Cell Systems, and Pen/Strep (1%), Sigma. In some embodiments, endothelial cells are cultured in Complete LSEC Culture Medium, Base LSEC Culture Medium plus 10% FBS. […]
The effects of agents, such as staurosporine on cell phenotype was evaluated. […] The protocol was chosen as it was analogous to how the compound has been evaluated in vivo. […]

[8] = system: Kupffer cells; assay: Kupffer cell count (CD68-positive cells), human Liver-Chip; type: cell-based; details: human quadruple-cell chip
Experimental: as §1, §2

[9] = system: rats; assay: Repeat-dose toxicity studies in rats; type: in vivo; details: rat study of the cFMS/FLT3 inhibitor
Experimental: (§3) JNJ-1, prepared in purified water, was administered once daily for 14 days to 5 male and 5 female rats at doses of 5, 25, and 125 mg/kg. In a separate study, JNJ-1, also in purified water, was administered once daily for 4 weeks to 5 male and 5 female dogs at 0 or 40 mg/kg/day, and to 3 males and 3 female dogs at 2 or 10 mg/kg/day. Mortality, clinical observations, body weight, food consumption, clinical pathology, gross necropsy and microscopic examination of selected tissues, and toxicokinetics were evaluated. Rats or dogs were fasted overnight prior to blood collection for measurement of clinical pathology parameters (including AST and ALT) at the end of 14 days (rats) or 4 weeks (dogs) of dosing. Histology slides (hematoxylin and eosin staining and Mason's Trichrome staining) of the liver tissues were prepared and evaluated microscopically. The quantification of JNJ-1 was conducted using a qualified liquid chromatographic-triple quadrupole mass spectrometric (LC-MS/MS) procedure.
Regarding histology procedures, the liver was sampled. Briefly, 5 serial sections were prepared. One was stained with hematoxylin and eosin (H&E) kit. The 4 others were submitted to histochemical and immunohistochemical stains. Collagen was detected with the Van Gieson kit (Merck, Darmstadt, Germany), and reticulin, with the Reticulum kit (Sigma-Aldrich). […]

[10] = system: dogs; assay: Repeat-dose toxicity studies in dogs; type: in vivo; details: dog study of the cFMS/FLT3 inhibitor
Experimental: as §3, with “Rats or dogs were fasted overnight prior to blood collection for measurement of clinical pathology parameters (including AST and ALT) at the end of 14 days (rats) or 4 weeks (dogs) of dosing.” left out
JNJ-3 (in 20% hydroxypropyl-β-cyclodextrin) was administered once daily for 14 days to 3 male beagle dogs per group at doses of 15 and 65 mg/kg. Mortality, clinical observations, body weight, food consumption, clinical pathology, gross necropsy and microscopic examination of selected tissues, and toxicokinetics were evaluated. […] Histology slides (hematoxylin and eosin staining and Mason's Trichrome staining) of the liver tissues were prepared and evaluated microscopically. […]

[11] = molecular target: T1, bile salt export pump (BSEP) (Homo sapiens, UniProt O95342); assay: CLF efflux into bile canaliculi (BSEP activity), human Liver-Chip; type: cell-based; details: 30 μM, co-treatment with CLF
T1 construct: Primary rat, dog or human hepatocytes were cultured in the upper parenchymal channel; endogenous in cells; host or cells: primary human hepatocytes co-cultured with LSECs in a microfluidic Liver-Chip
Experimental: Both a brightfield and a fluorescence image was taken from each field of view. […] CLF-labeled regions that most likely to corresponded to bile canaliculi were automatically identified based on geometric criteria and retained only if they co-localized with a bile canaliculi signal in channel 1. […] These criteria were determined empirically using a small test set of images and then applied to images for the analysis. […] The data for treated and control samples were quantified by computing the area percentage of CLF-labeled bile canaliculi within each field of view (FOV).

[12] = system: BSEP; assay: BSEP protein area and gene expression, human Liver-Chip; type: cell-based; details: 30 μM
Experimental: In one embodiment, gene expression levels were analyzed using 2-step PCR. […] Relative gene expression levels were calculated using ddCt method.
The fluorescent channel images were first de-blurred with Olympus cellSens software. Using ImageJ, they were then histogram adjusted to remove background, adaptive thresholded to extract fluorescent regions (a plugin developed by Qingzong Tseng using the adaptive threshold method of the OpenCV library), and analyzed using the built-in 3D Object Counter function with an area cutoff value to remove noise.

[13] = system: 3D human spheroid hepatic cultures; details: fold higher than the human Liver-Chip IC50; cited from earlier work
[14] = system: microfluidic devices seeded with rat liver cells; assay: Albumin secretion (ELISA), rat Liver-Chip; type: cell-based; details: 168 h; dual-cell rat chips, daily administration 1-100 μM for 7 days; read-out: IC50 of decrease in albumin secretion
Excerpt: Prior to cell seeding, microfluidic devices, in this case S-I Chips (Emulate, Inc. Boston, Mass., USA), were functionalized using Emulate's proprietary protocols and reagents (ER™), including those described herein. After surface functionalization, both channels of the microfluidic device were coated with species-specific extracellular matrices (ECM). For the human bound microfluidic device, a mixture of collagen type I (Corning, Corning, N.Y., USA) and fibronectin, e.g. bovine, (Gibco) was used; for the rat bound microfluidic devices a mixture of collagen type IV, e.g. human placenta, (Sigma-Aldrich, St. Louis, Mo., USA) and fibronectin (Gibco) was used; for the dog bound microfluidic devices a mixture of collagen I (Corning), collagen type IV (Sigma-Aldrich), and fibronectin (Gibco) was used. […] For the dual-cell culture model (hepatocytes and endothelial cells), the LSECs were seeded at a concentration of 2-4 million cells/mL in the lower vascular channel. […] Albumin secretion from the upper channel was quantified using ELISA kits for human, rat, and dog models effluent samples (human and rat: Abcam; dog: Immunology Consultants Laboratory, Inc., Portland, Oreg., USA) and the assays were performed according to the protocol provided by each vendor.

T1 sequence (O95342 whole entry): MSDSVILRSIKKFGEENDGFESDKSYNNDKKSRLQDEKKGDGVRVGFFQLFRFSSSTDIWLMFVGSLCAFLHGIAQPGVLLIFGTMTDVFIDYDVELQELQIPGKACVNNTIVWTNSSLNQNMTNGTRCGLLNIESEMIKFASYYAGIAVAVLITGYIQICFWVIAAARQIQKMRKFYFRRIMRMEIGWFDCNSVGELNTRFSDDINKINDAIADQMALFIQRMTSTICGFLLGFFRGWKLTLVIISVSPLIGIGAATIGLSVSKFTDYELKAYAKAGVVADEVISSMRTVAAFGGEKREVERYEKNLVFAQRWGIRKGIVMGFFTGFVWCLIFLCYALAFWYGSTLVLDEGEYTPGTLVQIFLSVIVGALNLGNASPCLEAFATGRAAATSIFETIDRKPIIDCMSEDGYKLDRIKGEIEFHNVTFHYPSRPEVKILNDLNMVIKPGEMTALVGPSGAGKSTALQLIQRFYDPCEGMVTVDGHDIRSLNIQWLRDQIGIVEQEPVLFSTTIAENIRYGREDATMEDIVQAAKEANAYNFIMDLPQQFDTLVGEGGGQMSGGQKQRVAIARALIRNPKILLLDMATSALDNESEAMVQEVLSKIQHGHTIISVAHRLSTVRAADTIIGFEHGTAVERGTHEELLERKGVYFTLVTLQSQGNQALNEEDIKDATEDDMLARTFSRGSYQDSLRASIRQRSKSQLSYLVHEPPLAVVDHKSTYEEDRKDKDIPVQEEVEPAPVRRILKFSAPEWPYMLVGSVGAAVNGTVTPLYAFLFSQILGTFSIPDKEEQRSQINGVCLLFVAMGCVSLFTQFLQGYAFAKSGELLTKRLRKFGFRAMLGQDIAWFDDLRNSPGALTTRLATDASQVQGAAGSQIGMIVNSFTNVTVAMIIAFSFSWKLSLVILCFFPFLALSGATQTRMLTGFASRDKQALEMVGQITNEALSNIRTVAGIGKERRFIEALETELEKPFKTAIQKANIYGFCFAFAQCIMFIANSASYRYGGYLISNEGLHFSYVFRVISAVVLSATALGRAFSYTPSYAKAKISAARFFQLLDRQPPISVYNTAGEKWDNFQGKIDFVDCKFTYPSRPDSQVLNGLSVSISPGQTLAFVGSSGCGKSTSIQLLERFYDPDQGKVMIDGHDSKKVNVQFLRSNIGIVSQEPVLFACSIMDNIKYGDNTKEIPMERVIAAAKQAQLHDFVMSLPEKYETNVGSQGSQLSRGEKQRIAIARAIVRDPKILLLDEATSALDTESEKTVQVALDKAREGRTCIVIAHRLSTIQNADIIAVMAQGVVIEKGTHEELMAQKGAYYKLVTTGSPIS

## CC(=O)Nc1ccc(O)cc1 [APAP, acetaminophen]
[1]
  APAP glucuronide in parenchymal and vascular channels: significant amounts
[2]; APAP 7 days, quadruple-cell human chip
  albumin synthesis: decreased

## CN(Cc1cnc2nc(N)nc(N)c2n1)c1ccc(C(=O)N[C@@H](CCC(=O)O)C(=O)O)cc1 [MTX, Methotrexate]
[3]
  expression of α-SMA (stellate cell activation): increased expression
[4]
  lipid accumulation detected by Nile red: microscopic evidence of lipid accumulation
[5]; MTX treatment, 1 day, vascular channel
  IP-10: increases
[5]; treated Liver-Chips (discussion)
  cytokines/chemokines including IP-10: release
[6]
  maximal plasma concentrations at which liver injury occurs in humans: ~1 µM
[2]; MTX 1, 10 and 30 μM for 7 days, quadruple-cell chip
  albumin secretion: no abnormalities

## CN[C@@H]1C[C@H]2O[C@@](C)([C@@H]1OC)n1c3ccccc3c3c4c(c5c6ccccc6n2c5c31)C(=O)NC4 [Staurosporine, staurosporine]
[7]
  LSECs: complete loss
  apoptotic marker (CC3): marked increases

## CN(C)CC(=O)N1CCC(c2ccc(NC(=O)c3nc(C#N)c[nH]3)c(C3=CCCCC3)c2)CC1 [a JNJ compound]
[5]; human quadruple-cell chip
  interleukin 6 (IL-6) in the vascular channel: dose-dependent decrease
  monocyte chemoattractant protein-1 (MCP-1) in the vascular channel: dose-dependent decrease
[8]
  CD68-positive cells (Kupffer cell depletion): decreased number
[9]
  microscopic changes in the liver: without any correlative microscopic changes
  transaminases: Dose-related elevation
[10]
  microscopic changes in the liver: without any correlative microscopic changes
  transaminases: Dose-related elevation

## COc1ccccc1Oc1c(NS(=O)(=O)c2ccc(C(C)(C)C)cc2)nc(-c2ncccn2)nc1OCCO [bosentan]
[11]
  CLF in human hepatocytes: intracellular accumulation
[12]
  BSEP mRNA levels: decreases
  BSEP protein levels: decreases
[13]
  IC50 in 3D human spheroid hepatic cultures relative to human chip: more than 10 fold
[14]
  IC50: > 100 µM
